Results as given in patent US7655626B2, “Antiangiogenic peptides” (Universite de Liege, priority 2004, dated 2010).

Experiments:
[1] = Lipid phase (liposome) fusion, R18 fluorescence; details: for Relative liposome fusion, pH 8 UC / Relative liposome fusion, pH 4 UC / Relative liposome fusion, pH 6 UC: uncharged liposomes; for Relative liposome fusion, pH 4 C / Relative liposome fusion, pH 6 C / Relative liposome fusion, pH 8 C: charged liposomes
Method: Lipid phase fusion was measured by following the fluorescence of a liposoluble marker, R18. When incorporated into liposomes at a high surface density, R18 fluorescence is attenuated. Upon dilution of the marker through membrane fusion of labeled and unlabeled liposomes, the attenuation is relieved and R18 fluorescence increases. Labeled liposomes were prepared by blending R18 into the lipid film (see table 1). Labeled and unlabeled liposomes were mixed in a 1:4 ratio (w/w) and diluted to a concentration of 50 μM. Fluorescence is measured at room temperature (excitation λ: 560 nm, emission λ: 590 nm) on a Perkin Elmer LS-50B fluorimeter. The ability of PO-PRL to induce liposome fusion was analyzed in two different liposome preparations at different pH (table 1).
The following buffers were used: pH 8 buffer (10 mM Tris-HCl, pH=8; 150 mM NaCl; 0.01% EDTA; 1 mM NaN3), pH 6 buffer (10 mM Sodium-Acetate, pH=6; 150 mM NaCl; 0.01% EDTA; 1 mM NaN3), pH 4 buffer (10 mM Sodium Acetate, pH=4; 57 mM Acetic Acid)
The following concentrations of the peptide were used: • 600 μM corresponding to a molar peptide/lipid ratio (R) of 0.2 • 300 μM corresponding to a peptide/lipid ratio (R) of 0.1 • 150 μM corresponding to a peptide/lipid ratio (R) of 0.05 • 60 μM corresponding to a peptide/lipid ratio (R) of 0.02 • 30 μM corresponding to a peptide/lipid ratio (R) of 0.01.

[2] = Secondary structure by ATR-FTIR; format: physicochemical; details: peptide dissolved in 100% DMSO
Method: The conformation of the peptide in solution is analyzed by Fourier transformed infrared spectroscopy (ATR-FTIR). The sample (20 μg) is spread on a Germanium plate and spectra are recorded between 1800 and 1000 cm−1. The deconvolution of the 1700-1600 cm−1 area, corresponding to the amide I band, allows the determination of the secondary structure of the peptide (Goormaghtigh, E., et al. Biochim Biophys Acta 1422:[…] (1999)). The secondary structure of the peptide is given Table 3. Tilted peptides are often in β structure in solution, while being helical in the presence of lipids (Martin, I., et al. Biochem Biophys Res Commun 175:872-9 (1991)).

[3] = tested on: BACE cells; assay: Apoptosis by flow cytometry (propidium iodide, sub-G1 population); format: cell-based, Bovine; details: 10 nM; 18-h treatment; untreated cells 1%
Method: In order to determine the effect of MPB-PO-PRL on endothelial cell apoptosis, the inventors have analyzed the DNA content of MBP-PO-PRL treated cells by flow cytometry. For this purpose, DNA was labeled with propidium iodide. Bovine adrenal cortex endothelial (BACE) cells were plated in low-glucose Dulbbecco's modified Eagle's medium containing 10% fetal calf serum (FCS) and 100 U/ml penicillin/streptomycin per ml (10% FCS medium) at a density of cells 5×10^5/100 mm plate. 24 h after plating, cells were treated for 18 h with the proteins of interest. The cells were then harvested and fixed and permeabilized in ice-cold ethanol for 2 h before centrifugation and incubation (at 37° C. for 30 min) in PBS containing Rnase (5 μg/ml) and propidium iodide (50 μg/ml). The cells were analysed using a Coulter Epics XL flow cytometer.

[4] = tested on: BACE cells; assay: In vitro capillary formation, collagen gel assay; format: cell-based, Bovine; details: 10 nM
Method: In order to further analyze the ability of the MBP-PO-PRL to prevent angiogenesis in vitro, its capacity to prevent capillary formation was analyzed in a collagen gel assay. This assay was performed as follows: 20000 cells were plated between two collagen gels (5 volumes rat tail collagen, 1 volume 10×M199 medium, 50 mM NaHCO3). Gels were overlaid with 10% FBS medium containing or not recombinant proteins of interest.

[5] = tested on: B16-F10 murine melanoma cells; assay: Viability assay (calcein-AM), B16-F10; format: cell-based; details: 10 nM; 72 h
Method: (§1) In order to determine whether the effect of tilted peptides exerted on endothelial cells is cell specific, a viability assay was performed on BACE and ABAE endothelial cells and on two tumoral cells lines, the B16-F10 murine melanoma cells and the MDA-MB-231 human breast cancer cell. Viable cells are detected by the presence of intracellular esterase, determined by the enzymatic conversion of non fluorescent calcein AM (an ester derivative) into fluorescent calcein.
(§2) To determine whether the activity of the MBP-PO-PRL and MBP-PO-GH is specific for endothelial cells, their ability to affect viability of B16-F10 and MDA-MB-231 cell line was determined. 25000 MDA-MB-231 cells and B16-F10 cells were plated in 24-well plates, respectively in 0.5 ml 10% FCS/RPMI medium and in 10% FCS/DMEM 4500 medium. The cells were treated with recombinant proteins or campthotecin for 72 h. Cells were washed, incubated with calcein-AM and fluorescence determined as described above.

[6] = tested on: MDA-MB-231 human breast cancer cell; assay: Viability assay (calcein-AM), MDA-MB-231; format: cell-based; details: 10 nM; 72 h
Method: as §1, §2

FLSLIVSILRSWNE [PO-PRL]
Relative liposome fusion, pH 8 UC ([1]; R 0.05 (150 μM), 15 min): 38% | Relative liposome fusion, pH 4 C ([1]; R 0.05, 15 min): 35% | Relative liposome fusion, pH 4 UC ([1]; R 0.05, 15 min): 100% | Relative liposome fusion, pH 6 C ([1]; R 0.05, 15 min): 35% | Relative liposome fusion, pH 6 UC ([1]; R 0.05, 15 min): 38% | Relative liposome fusion, pH 8 C ([1]; R 0.05, 15 min): 34% | Relative liposome fusion, pH 8 UC ([1]; R 0.1 (300 μM), 15 min): 64% | Relative liposome fusion, pH 4 C ([1]; R 0.1, 15 min): 34% | Relative liposome fusion, pH 4 UC ([1]; R 0.1, 15 min): 105% | Relative liposome fusion, pH 6 C ([1]; R 0.1, 15 min): 44% | Relative liposome fusion, pH 6 UC ([1]; R 0.1, 15 min): 55% | Relative liposome fusion, pH 8 C ([1]; R 0.1, 15 min): 41% | Relative liposome fusion, pH 4 C ([1]; R 0.2, 15 min): 47% | Relative liposome fusion, pH 4 UC ([1]; R 0.2, 15 min): 97% | Relative liposome fusion, pH 6 C ([1]; R 0.2, 15 min): 87% | Relative liposome fusion, pH 6 UC ([1]; R 0.2, 15 min): 68% | Relative liposome fusion, pH 8 C ([1]; R 0.2, 15 min): 64% | Relative liposome fusion, pH 8 UC ([1]; R (peptide/lipid) 0.2 (600 μM), after 15 min, reference set at 100%): 100% | Secondary structure: Alpha [2]: 16% | Secondary structure: Beta [2]: 63% | Secondary structure: Coil [2]: 9% | Secondary structure: Turn [2]: 12%

B1: 16K hPRL: 16 kDa N-terminal fragment of human prolactin, positive control (protein)
chain: LPICPGGAARCQVTLRDLFDRAVVLSHYIHNLSSEMFSEFDKRYTHGRGFITKAINSCHTSSLATPEDKEQAQQMNQKDFLSLIVSILRSWNEPLYHLVTEVRGMQEAPEAILSKAVEIEEQTKRLLEGMELIVSQVHP
percentage of sub-G1 cell population [3]: 55,9% | capillary formation in collagen gel [4]: prevents capillary formation | cell viability [5]: do not affect viability | cell viability [6]: do not affect viability
